Results: patent US6251894A, “1-(1,2-disubstituted piperidinyl)-4 (fused imidazole)-piperidine derivatives” (Janssen Pharmaceuticals N.V., priority 1995, dated 2001)
Where two headings read alike, the source gives them in different places.

Columns and labels:
[1] = tested on: Substance P Induced Relaxation of the Pig Coronary Arteries; experiment: Antagonism of substance P induced relaxation of the pig coronary arteries; conditions: test compound concentration 3 × 10^-9 (unit not given), 30 min incubation
Procedure, shortened: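 Inverted pig coronary artery segments, endothelium outside, in Krebs-Henseleit at 37 °C (95/5 O2/CO2), isometric tension recorded. After prostaglandin F2α (10^-5 M) precontraction, substance P (3×10^-10 M and 10^-9 M cumulative) relaxation repeated after 30 min incubation with test compound.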

[2] = tested on: Substance P Induced Plasma Extravasation; experiment: Antagonism of substance P induced plasma extravasation in guinea-pigs; type: in vivo, guinea-pig; conditions: Cavia porcellus, 1 hour prior to substance P
Procedure, shortened: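 Female guinea-pigs; compound or solvent given s.c. or p.o. 1 h before substance P (2 mg/kg, femoral artery) plus Evans Blue (30 mg/kg). Blue colouring of nose, forepaws, conjunctiva scored at 10 min; trachea and urinary bladder at 30 min after CO2 sacrifice. Values are lowest active doses in mg/kg.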

[3] = sc, 10 min, s.c., conjunctiva, read-out: lowest active dose (LAD), conjunctiva
[4] = sc, 10 min, s.c., forepaws, read-out: lowest active dose (LAD), forepaws
[5] = sc, 10 min, s.c., nose, read-out: lowest active dose (LAD), nose
[6] = sc, 0.5 h, s.c., trachea, read-out: lowest active dose (LAD), trachea
[7] = sc, 0.5 h, s.c., urinary bladder, read-out: lowest active dose (LAD), urinary bladder
[8] = po, 10 min, p.o., conjunctiva, read-out: lowest active dose (LAD), conjunctiva
[9] = po, 10 min, p.o., forepaws, read-out: lowest active dose (LAD), forepaws
[10] = po, 10 min, p.o., nose, read-out: lowest active dose (LAD), nose
[11] = po, 0.5 h, p.o., trachea, read-out: lowest active dose (LAD), trachea
[12] = po, 0.5 h, p.o., urinary bladder, read-out: lowest active dose (LAD), urinary bladder

Compound	% inhibition of the response to 10^-9 M substance P [1] [%]	minimal effective dose [2, 3] [mg/kg]	minimal effective dose [2, 4] [mg/kg]	minimal effective dose [2, 5] [mg/kg]	minimal effective dose [2, 6] [mg/kg]	minimal effective dose [2, 7] [mg/kg]	minimal effective dose [2, 8] [mg/kg]	minimal effective dose [2, 9] [mg/kg]	minimal effective dose [2, 10] [mg/kg]	minimal effective dose [2, 11] [mg/kg]	minimal effective dose [2, 12] [mg/kg]
Cc1cc(C)cc(C(=O)N2CC[C@@H](N3CCC(=C4c5sccc5CCn5ccnc54)CC3)C[C@H]2Cc2ccccc2)c1 (relative stereo) [Compound 35]	27.7	10	10	10	10	10					
Cc1cc(C)cc(C(=O)N2CC[C@H](N3CCC(=C4c5sccc5CCn5ccnc54)CC3)C[C@H]2Cc2ccccc2)c1 (relative stereo) [Compound 37]	81.9	2.5	2.5	2.5	10	10					
Cc1cc(C)cc(C(=O)N2CC[C@H](N3CCC(=C4c5ccsc5CCn5ccnc54)CC3)C[C@H]2Cc2ccccc2)c1 (relative stereo) [Compound 39]	42.9	2.5	2.5	2.5	10	10					
Cc1cc(C)cc(C(=O)N2CC[C@H](N3CCC(=C4c5ccccc5CCn5ccnc54)CC3)C[C@H]2Cc2ccccc2)c1 (relative stereo) [Compound 41]	40.6	2.5	10	10	10	10					
O=C(c1cc(C(F)(F)F)cc(C(F)(F)F)c1)N1CC[C@H](N2CCC(=C3c4ccccc4CCn4c3nc(CO)c4CO)CC2)C[C@@H]1Cc1ccccc1 (relative stereo) [Compound 52]	77.8	2.5	2.5	2.5	10	2.5					
Cc1cnc2n1CCc1ccccc1C2=C1CCN([C@H]2CCN(C(=O)c3cc(C(F)(F)F)cc(C(F)(F)F)c3)[C@@H](Cc3ccccc3)C2)CC1 (relative stereo) [Compound 53]	44.4	10	10	10	10	10					
Cc1cnc2n1CCc1ccccc1C2=C1CCN([C@H]2CCN(C(=O)c3cc(C(F)(F)F)cc(C(F)(F)F)c3)[C@H](Cc3ccccc3)C2)CC1 (relative stereo) [Compound 54]	69.8	2.5	2.5	2.5	2.5	2.5					
O=C(c1cc(C(F)(F)F)cc(C(F)(F)F)c1)N1CC[C@H](N2CCC(=C3c4ccccc4CCn4c3nc3ccccc34)CC2)C[C@H]1Cc1ccccc1 (relative stereo) [Compound 72]	97.4						10	10	10	10	10
O=C1Cn2ccnc2C(=C2CCN([C@H]3CCN(C(=O)c4cc(C(F)(F)F)cc(C(F)(F)F)c4)[C@@H](Cc4ccccc4)C3)CC2)c2ccsc21 (relative stereo) [Compound 106]	92.3						10	10	10	10	10
O=C1Cn2ccnc2C(=C2CCN([C@@H]3CCN(C(=O)c4cc(C(F)(F)F)cc(C(F)(F)F)c4)[C@@H](Cc4ccccc4)C3)CC2)c2ccsc21 (relative stereo) [Compound 107]	96.3						10	10	10	10	10
Cc1cc(C)cc(C(=O)N2CC[C@H](N3CCC(=C4c5ccsc5C(=O)Cn5ccnc54)CC3)C[C@@H]2Cc2ccccc2)c1 (relative stereo) [Compound 111]	22.6	10	10	10	10	10					
Cc1cc(C)cc(C(=O)N2CC[C@@H](N3CCC(=C4c5ccsc5C(=O)Cn5ccnc54)CC3)C[C@@H]2Cc2ccccc2)c1 (relative stereo) [Compound 112]	66.7	0.63	0.63	0.63	10	2.5					
O=C(c1cc(C(F)(F)F)cc(C(F)(F)F)c1)N1CC[C@H](N2CCC(=C3c4ccccc4OCn4ccnc43)CC2)C[C@@H]1Cc1ccccc1 (relative stereo) [Compound 113]	87.9	10	10	10	10	10					
O=C(c1cc(C(F)(F)F)cc(C(F)(F)F)c1)N1CC[C@@H](N2CCC(=C3c4ccccc4OCn4ccnc43)CC2)C[C@@H]1Cc1ccccc1 (relative stereo) [Compound 114]	100.0	2.5	10	2.5	10	10					
Cc1cc(C)cc(C(=O)N2CC[C@@H](N3CCC4(CC3)c3ccccc3CCn3ccnc34)C[C@@H]2Cc2ccccc2)c1 (relative stereo) [Compound 120]	7.7	2.5	2.5	2.5	10	10					
O=C(c1cc(C(F)(F)F)cc(C(F)(F)F)c1)N1CC[C@@H](N2CCC(C3c4ccccc4CCn4ccnc43)CC2)C[C@@H]1Cc1ccccc1 (stereo partly drawn) [Compound 8]	82.3	10	2.5	2.5	10	10					
Cc1cc(C)cc(C(=O)N2CC[C@@H](N3CCC(C4c5ccccc5CCn5ccnc54)CC3)C[C@H]2Cc2ccccc2)c1 (stereo partly drawn) [Compound 26]	25.6	10	10	10	10	10					
Cc1cc(C)cc(C(=O)N2CC[C@@H](N3CCC(C4c5ccccc5CCn5ccnc54)CC3)C[C@@H]2Cc2ccccc2)c1 (stereo partly drawn) [Compound 27]	5.1	2.5	2.5	2.5	10	2.5					
Cc1cc(C)cc(C(=O)N2CCC(N3CCC(C4c5ccccc5Cn5ccnc54)CC3)CC2Cc2ccccc2)c1 (stereo not drawn) [Compound 108]	2.6	10	10	10	10	10					
